Data published in patent US20240183843A1, “METHOD FOR EVALUATING EXCRETION OF SUBSTANCE OF INTEREST BY HUMAN HEPATOCYTE-LIKE CELL” (JSR Corporation, priority 2020, published 2024).

Tests used:
P-glycoprotein (P-gp) [1] = target: T1, P-glycoprotein (P-gp) (Homo sapiens, UniProt P08183)
Method: Rho123 (10 μM) was added to the culture solution containing the culture embedded in Matrigel after the culturing prepared in Experimental Example 1, and the incorporation of the Rho123 into the inner cavity of the culture was carried out at 37° C. for 30 min in the presence of 5% by volume of CO2.
The polymerized Matrigel was degraded by pipetting and enzymatic treatment (Corning (registered trade name) Cell Recovery Solution) in order to measure the amount of the incorporated Rho123.

P-glycoprotein (P-gp) [2] = target: T1, P-glycoprotein (P-gp); test: Rho123 excretion of present evaluation model (sac-like material, suspension culture), fluorescence microscopy; type: in vitro ADME; design: In the obtained culture, an inner cavity due to the membrane of the human hepatocyte-like cell was formed; host or cells: human hepatocyte-like cells (organoid or sac-like material) cultured from human primary hepatocytes; details: Rho123 10 μM, 37°C, 30 min, 5% CO2; sac-like material of human hepatocyte-like cells, 2% by volume Matrigel suspension culture; FIG. 2A/2B
Method: (§1) The culture of human liver cells after the subculturing in Experimental Example 1, the culture medium in Table 1, and 2% by volume of Matrigel with respect to the culture medium were added to a 6-well culture plate (manufactured by Sumitomo Bakelite Co., Ltd., MS-8006R), followed by the suspension culture at 37° ° C. for 3 days in the presence of 5% by volume of CO2 to form a sac-like material.
(§2) In Experimental Example 2, Rho123 (10 μM), which is a substrate for P-glycoprotein (P-gp), was added to the culture solution after the suspension culture. The incorporation of the Rho123 into the inner cavity of the present evaluation model was carried out at 37 °C for 30 min in the presence of 5% by volume of CO2. A culture solution containing the present evaluation model was placed in a low-adsorption 15 mL tube by pipetting, followed by centrifugation.

P-glycoprotein (P-gp) [3] = target: T1, P-glycoprotein (P-gp); test: Quantification of Rho123 incorporated into inner cavity of present evaluation model by LC/MS; type: in vitro ADME; design: In the obtained culture, an inner cavity due to the membrane of the human hepatocyte-like cell was formed; host or cells: human hepatocyte-like cells (organoid or sac-like material) cultured from human primary hepatocytes; details: Rho123 10 μM in culture solution, 37°C, 30 min
Method: as §1, §2
The present evaluation model of Experimental Example 3, into which Rho123 had been incorporated, was mixed with methanol to kill the human hepatocyte-like cells. After mixing, centrifugation was carried out to extract the supernatant. The supernatant was subjected to analysis by a liquid chromatography-mass spectrometer (LC/MS) (manufactured by SHIMADZU CORPORATION, LCMSTM-8040), and from the concentration and amount of the Rho123 incorporated into the inner cavity and the concentration of the Rho123 in the culture solution, the proportion of the present evaluation model transported into the inner cavity was calculated.
• Column: Xbridge C18 3.5 μm, 2.1 mm×50 mm • Column temperature: 40° ° C. • Internal standard substance: Tolbutamine • Elution solvent: A solution (a 0.1% by mass formic acid solution), B solution (acetonitrile) • Gradient conditions: see Table 2 • Runtime: 7 minutes • Flow rate: 0.4 mL/min • Injection volume: 3 μL
• Mode: Positive (*the standard substance is in a negative mode)

MRP2 = target: T2, MRP2 (Homo sapiens, UniProt Q92887); test: CDFDA excretion of present evaluation model, microscopy; type: in vitro ADME; details: CDFDA 2 μM, 5 µM, or 10 µM, 37°C, 30 min, 5% CO2; FIG. 5
T2 construct: host or cells: human hepatocyte-like cells (sac-like material) cultured from human primary hepatocytes
Method: as §1
as §2, with “2 μM, 5 µM, or 10 µM of carboxydichlorofluorescein diacetate (CDFDA),” for “Rho123 (10 μM),”, “of MRP2,” for “for P-glycoprotein (P-gp),”, “CDFDA” for “Rho123”, “ml” for “mL”

T1 sequence (P08183 whole entry): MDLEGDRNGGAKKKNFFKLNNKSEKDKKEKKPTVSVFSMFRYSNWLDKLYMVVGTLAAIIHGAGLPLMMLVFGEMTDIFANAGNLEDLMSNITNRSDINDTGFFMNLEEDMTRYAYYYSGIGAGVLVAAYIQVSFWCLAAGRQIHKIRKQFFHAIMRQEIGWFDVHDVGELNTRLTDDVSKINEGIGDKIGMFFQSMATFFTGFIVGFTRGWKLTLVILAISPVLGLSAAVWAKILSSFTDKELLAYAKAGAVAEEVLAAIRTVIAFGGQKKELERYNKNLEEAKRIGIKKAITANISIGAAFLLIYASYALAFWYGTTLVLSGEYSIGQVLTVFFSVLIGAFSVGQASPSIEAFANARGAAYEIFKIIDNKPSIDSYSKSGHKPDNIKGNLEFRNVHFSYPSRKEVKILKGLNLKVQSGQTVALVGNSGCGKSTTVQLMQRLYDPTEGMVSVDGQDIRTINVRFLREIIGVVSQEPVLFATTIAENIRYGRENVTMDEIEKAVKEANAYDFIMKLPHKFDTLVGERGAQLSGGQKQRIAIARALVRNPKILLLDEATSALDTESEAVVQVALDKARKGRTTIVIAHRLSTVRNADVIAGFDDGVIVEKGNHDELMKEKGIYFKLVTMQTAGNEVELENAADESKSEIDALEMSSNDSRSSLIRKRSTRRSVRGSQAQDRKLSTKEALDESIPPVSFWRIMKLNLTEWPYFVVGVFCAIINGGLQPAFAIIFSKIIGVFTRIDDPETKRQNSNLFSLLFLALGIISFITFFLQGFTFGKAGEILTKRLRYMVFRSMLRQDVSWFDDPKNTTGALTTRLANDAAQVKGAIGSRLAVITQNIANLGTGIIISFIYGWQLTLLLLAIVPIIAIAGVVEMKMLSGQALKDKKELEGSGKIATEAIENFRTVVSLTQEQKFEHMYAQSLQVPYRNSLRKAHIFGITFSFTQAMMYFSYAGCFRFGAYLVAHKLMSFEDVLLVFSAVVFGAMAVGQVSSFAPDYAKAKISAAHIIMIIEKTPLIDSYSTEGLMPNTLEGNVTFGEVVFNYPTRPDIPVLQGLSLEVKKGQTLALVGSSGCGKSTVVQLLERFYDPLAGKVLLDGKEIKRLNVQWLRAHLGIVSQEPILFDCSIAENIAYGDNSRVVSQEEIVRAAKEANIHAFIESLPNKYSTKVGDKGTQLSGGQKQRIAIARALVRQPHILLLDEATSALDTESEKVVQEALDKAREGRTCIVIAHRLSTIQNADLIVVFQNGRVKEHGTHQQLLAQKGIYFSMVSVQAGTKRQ
T2 sequence (Q92887 whole entry): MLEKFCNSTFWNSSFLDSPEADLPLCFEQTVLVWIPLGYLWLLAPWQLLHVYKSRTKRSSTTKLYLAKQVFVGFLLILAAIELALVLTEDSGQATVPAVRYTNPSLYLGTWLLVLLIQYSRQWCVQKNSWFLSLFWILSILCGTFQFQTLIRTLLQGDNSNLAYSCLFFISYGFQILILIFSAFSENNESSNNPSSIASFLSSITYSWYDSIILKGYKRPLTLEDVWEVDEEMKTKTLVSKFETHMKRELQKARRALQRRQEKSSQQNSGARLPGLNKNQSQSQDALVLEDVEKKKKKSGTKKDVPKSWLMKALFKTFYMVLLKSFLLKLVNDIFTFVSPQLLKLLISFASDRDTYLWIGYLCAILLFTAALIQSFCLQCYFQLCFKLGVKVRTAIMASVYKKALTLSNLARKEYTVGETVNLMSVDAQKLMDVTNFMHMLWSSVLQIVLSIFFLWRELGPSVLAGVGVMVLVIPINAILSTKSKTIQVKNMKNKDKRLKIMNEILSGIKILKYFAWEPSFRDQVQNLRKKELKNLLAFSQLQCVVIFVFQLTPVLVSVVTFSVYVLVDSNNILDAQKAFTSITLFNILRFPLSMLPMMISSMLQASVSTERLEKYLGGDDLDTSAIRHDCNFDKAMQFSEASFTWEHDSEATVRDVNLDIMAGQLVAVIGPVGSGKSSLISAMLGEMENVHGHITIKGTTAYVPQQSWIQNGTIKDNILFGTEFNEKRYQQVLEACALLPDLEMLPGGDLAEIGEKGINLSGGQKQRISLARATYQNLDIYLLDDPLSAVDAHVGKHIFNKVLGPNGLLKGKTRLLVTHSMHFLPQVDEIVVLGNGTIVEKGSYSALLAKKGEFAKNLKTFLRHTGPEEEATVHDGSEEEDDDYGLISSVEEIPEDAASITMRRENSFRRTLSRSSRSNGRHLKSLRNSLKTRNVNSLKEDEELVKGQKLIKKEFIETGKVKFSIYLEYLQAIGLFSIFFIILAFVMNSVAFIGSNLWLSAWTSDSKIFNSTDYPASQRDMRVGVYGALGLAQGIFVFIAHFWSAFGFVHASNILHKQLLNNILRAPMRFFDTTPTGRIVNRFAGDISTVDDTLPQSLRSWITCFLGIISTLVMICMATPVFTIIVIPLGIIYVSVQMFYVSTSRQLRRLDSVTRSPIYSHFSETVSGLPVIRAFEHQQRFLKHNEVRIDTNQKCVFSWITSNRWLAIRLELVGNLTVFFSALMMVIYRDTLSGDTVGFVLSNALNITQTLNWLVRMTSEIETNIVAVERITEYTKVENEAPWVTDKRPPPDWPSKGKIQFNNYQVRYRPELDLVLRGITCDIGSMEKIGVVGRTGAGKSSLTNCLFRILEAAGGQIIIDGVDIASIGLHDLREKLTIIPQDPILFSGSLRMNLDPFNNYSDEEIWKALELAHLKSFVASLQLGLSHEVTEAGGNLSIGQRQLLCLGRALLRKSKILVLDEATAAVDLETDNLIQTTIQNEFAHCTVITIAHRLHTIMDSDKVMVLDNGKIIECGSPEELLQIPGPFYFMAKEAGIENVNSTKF

## COC(=O)c1ccccc1-c1c2ccc(=N)cc-2oc2cc(N)ccc12.Cl [Rho123]
P-glycoprotein (P-gp) [1]
  Incorporation into the inner cavity of the culture (microscopy): incorporation of Rho123 into the inner cavity of the culture was confirmed
P-glycoprotein (P-gp) [2]
  Excretion into the inner cavity of the present evaluation model (microscopy): excreted into the inner cavity of the present evaluation model
P-glycoprotein (P-gp) [3]; calculated from concentration and amount in inner cavity and concentration in culture solution
  Proportion transported into present evaluation model: 1.23%
P-glycoprotein (P-gp) [3]; methanol extraction, LC/MS
  Amount of Rho123 in present evaluation model: 0.123 nmol
  Concentration of Rho123 in present evaluation model: 615.4 nM

## carboxydichlorofluorescein diacetate [CDFDA]
MRP2
  Excretion into the inner cavity of the present evaluation model (microscopy): excreted into the inner cavity of the present evaluation model
